Data published in patent US8906925B2, “Pyrido[4,3-B]indoles containing rigid moieties” (Medivation Technologies, Inc., priority 2008, dated 2014).
Like-named read-outs stand apart in the source and are kept apart here.

Experiments:
[1] = target: T1, human recombinant adrenergic α1D receptor (Homo sapiens, UniProt P25100); test: Adrenergic α1D radioligand binding ([3H]Prozosin)
T1 construct: expressed in transfected cells; host or cells: human embryonic kidney (HEK-293) cells
T1 sequence (P25100 1-572): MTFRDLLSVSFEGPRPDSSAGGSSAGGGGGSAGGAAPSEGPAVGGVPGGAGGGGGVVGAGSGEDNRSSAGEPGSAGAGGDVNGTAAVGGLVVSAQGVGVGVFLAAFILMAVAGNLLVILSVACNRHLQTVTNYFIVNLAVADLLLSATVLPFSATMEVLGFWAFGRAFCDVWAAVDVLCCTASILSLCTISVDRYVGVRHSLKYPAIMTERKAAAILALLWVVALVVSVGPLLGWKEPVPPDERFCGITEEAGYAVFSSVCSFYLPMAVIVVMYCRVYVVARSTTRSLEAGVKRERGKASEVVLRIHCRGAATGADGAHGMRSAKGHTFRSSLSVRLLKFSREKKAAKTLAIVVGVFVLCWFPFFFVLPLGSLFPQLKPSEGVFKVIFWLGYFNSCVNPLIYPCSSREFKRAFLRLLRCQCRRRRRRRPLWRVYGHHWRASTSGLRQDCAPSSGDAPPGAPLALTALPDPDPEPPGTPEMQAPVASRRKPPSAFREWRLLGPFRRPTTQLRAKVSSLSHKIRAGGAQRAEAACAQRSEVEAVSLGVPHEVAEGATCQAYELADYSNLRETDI
Procedure: Compounds of invention were incubated with 0.6 nM [^3H]Prozosin for 60 min. at 25° C. Non-specific binding was estimated in the presence of 10 μM phentolamine. Receptor proteins were filtered and washed, the filters were then counted to determine [^3H]Prozosin specifically bound. Compounds were screened at 1 μM or lower, using 1% DMSO as vehicle. Biochemical assay results are presented as the percent inhibition of specific binding in Table 9.

[2] = target: T2, human recombinant adrenergic α2A receptor (Homo sapiens, UniProt P08913); test: Adrenergic α2A radioligand binding ([3H]MK-912)
T2 construct: expressed in transfected cells; host or cells: insect Sf9 cells
T2 sequence (P08913 1-465): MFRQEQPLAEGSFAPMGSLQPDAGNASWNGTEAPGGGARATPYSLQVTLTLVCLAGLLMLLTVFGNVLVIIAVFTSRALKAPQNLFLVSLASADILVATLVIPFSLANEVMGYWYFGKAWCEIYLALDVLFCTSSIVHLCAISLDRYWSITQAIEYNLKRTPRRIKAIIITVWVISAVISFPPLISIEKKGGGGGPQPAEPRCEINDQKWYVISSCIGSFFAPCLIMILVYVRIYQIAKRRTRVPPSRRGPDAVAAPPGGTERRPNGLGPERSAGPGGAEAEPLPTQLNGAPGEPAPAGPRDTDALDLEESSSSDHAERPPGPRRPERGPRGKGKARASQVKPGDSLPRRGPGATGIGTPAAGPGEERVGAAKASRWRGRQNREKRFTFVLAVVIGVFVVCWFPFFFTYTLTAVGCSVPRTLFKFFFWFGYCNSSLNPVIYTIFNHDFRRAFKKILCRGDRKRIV
Procedure: To evaluate in radioligand binding assays the activity of compounds of the invention, human recombinant adrenergic α2A receptor expressed in insect Sf9 cells (Uhlen S et al. J Pharmacol Exp Ther. 271:1558, 1994) in a modified Tris-HCl buffer (50 mM Tris-HCl, pH 7.4, 12.5 mM MgCl2, 2 mM EDTA) was used. Compounds of invention were incubated with 1 nM [^3H]MK-912 for 60 min. at 25° C. MK912 is (2S-trans)-1,3,4,5′,6,6′,7,12b-octahydro-1′,3′-dimethyl-spiro[2H-benzofuro[2,3-a]quinolizine-2,4′(1′H)-pyrimidin]-2′(3′H)-one hydrochloride Non-specific binding was estimated in the presence of 10 μM WB-4101 (2-(2,6-Dimethoxyphenoxyethyl)aminomethyl-1,4-benzodioxane hydrochloride). Receptor proteins were filtered and washed, the filters were then counted to determine [^3H]MK-912 specifically bound. Compounds were screened at 1 μM or lower, using 1% DMSO as vehicle. Biochemical assay results are presented as the percent inhibition of specific binding in Table 9.

[3] = target: human dopamine D2L receptor (Homo sapiens, UniProt P14416); test: Dopamine D2L radioligand binding ([3H]Spiperone); conditions: for Inhibition of ligand binding, Dopamine D2L: 1 µM
Description: Non-specific binding was estimated in the presence of […] Haloperidol. Receptor proteins were filtered and washed, the filters were then counted to determine [^3H]Spiperone specifically bound. […] Biochemical assay results are presented as the percent inhibition of specific binding in Table 9.

[4] = target: T3, human recombinant serotonin (5-Hydroxytryptamine) 5-HT6 receptor (Homo sapiens, UniProt P50406); test: Serotonin 5-HT6 radioligand binding ([3H]LSD); conditions: compound at 1 μM; read-out: Inhibition of ligand binding, Serotonin 5-HT6 (percent inhibition of specific binding)
T3 construct: expressed in transfected cells; host or cells: human HeLa cells
Procedure: Compounds of the invention were incubated with 1.5 nM [3H]Lysergic acid diethylamide (LSD) for 120 min. at 37° C. […] Receptor proteins were filtered and washed, the filters were then counted to determine [3H]LSD specifically bound. Compounds were screened at 1 μM or lower, using 1% DMSO as vehicle. Biochemical assay results are presented as the percent inhibition of specific binding in Table 10.

[5] = percent inhibition of specific binding, compound at 1 μM, read-out: Inhibition of ligand binding, Adrenergic α1D
[6] = percent inhibition of specific binding, compound at 1 μM, read-out: Inhibition of ligand binding, Adrenergic α2A
[7] = percent inhibition of specific binding, compound at 1 μM, read-out: Inhibition of ligand binding, Dopamine D2L
[8] = percent inhibition of specific binding, compound at 1 μM

T3 sequence (P50406 whole entry): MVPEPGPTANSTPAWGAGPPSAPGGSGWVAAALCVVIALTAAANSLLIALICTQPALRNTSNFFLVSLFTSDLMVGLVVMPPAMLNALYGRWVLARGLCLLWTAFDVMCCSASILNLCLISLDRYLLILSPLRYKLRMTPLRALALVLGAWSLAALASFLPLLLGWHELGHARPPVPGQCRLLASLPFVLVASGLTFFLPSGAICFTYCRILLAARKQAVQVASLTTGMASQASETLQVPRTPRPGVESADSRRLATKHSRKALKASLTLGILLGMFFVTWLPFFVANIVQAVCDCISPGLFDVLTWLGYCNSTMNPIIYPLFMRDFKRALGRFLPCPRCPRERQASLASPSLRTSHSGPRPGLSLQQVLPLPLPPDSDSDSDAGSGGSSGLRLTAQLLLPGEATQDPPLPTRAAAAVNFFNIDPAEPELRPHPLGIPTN
Chain of human dopamine D2L receptor (P14416 whole entry): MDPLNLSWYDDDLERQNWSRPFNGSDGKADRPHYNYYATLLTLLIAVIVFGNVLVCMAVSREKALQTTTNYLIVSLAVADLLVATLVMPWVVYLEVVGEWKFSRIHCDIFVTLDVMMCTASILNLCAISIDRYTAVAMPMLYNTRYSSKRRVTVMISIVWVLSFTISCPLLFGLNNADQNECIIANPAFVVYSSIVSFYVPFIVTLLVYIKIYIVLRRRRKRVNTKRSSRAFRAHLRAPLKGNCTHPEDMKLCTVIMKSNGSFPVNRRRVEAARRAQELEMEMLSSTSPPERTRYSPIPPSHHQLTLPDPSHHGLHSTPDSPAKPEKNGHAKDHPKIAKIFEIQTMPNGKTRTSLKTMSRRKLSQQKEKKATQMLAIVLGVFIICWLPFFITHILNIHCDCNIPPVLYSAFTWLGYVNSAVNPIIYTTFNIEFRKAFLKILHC

Row | Compound | inhibition at 1 µM [1, 5] [%] | inhibition at 1 µM [2, 6] [%] | inhibition at 1 µM [3, 7] [%] | inhibition at 1 µM [4] [%] | Inhibition of ligand binding, Dopamine D2L [3, 8] [%] | inhibition at 1 µM ([1]; read-out: Inhibition of ligand binding, Adrenergic α1D) [%] | inhibition at 1 µM ([2]; read-out: Inhibition of ligand binding, Adrenergic α2A) [%] | inhibition at 1 µM ([3]; read-out: Inhibition of ligand binding, Dopamine D2L) [%] | inhibition at 1 µM ([1]; compound at 1 μM, read-out: Inhibition of ligand binding, Adrenergic α1D (percent inhibition of specific binding)) [%] | inhibition at 1 µM ([2]; compound at 1 μM, read-out: Inhibition of ligand binding, Adrenergic α2A (percent inhibition of specific binding)) [%] | inhibition at 1 µM ([3]; compound at 1 μM, […] [3H]Spiperone, read-out: Inhibition of ligand binding, Dopamine D2L (percent inhibition of specific binding)) [%]
1 | C=C(Cn1c2c(c3cc(Cl)ccc31)CN(C)CC2)c1ccc(OC)c(F)c1 [Compound 140, 8-chloro-5-(2-(3-fluoro-4-methoxyphenyl)allyl)-2,3,4,5-tetrahydro-2-methyl-1H-pyrido[4,3-b]indole] | 84 | 86 | 57 | 75 | – | – | – | – | – | – | –
2 | COc1ccc(/C(C)=C/n2c3c(c4cc(Cl)ccc42)CN(C)CC3)cc1F [Compound 93, (E)-8-chloro-5-(2-(3-fluoro-4-methoxyphenyl)prop-1-enyl)-2,3,4,5-tetrahydro-2-methyl-1H-pyrido[4,3-b]indole] | 96 | 94 | 85 | 93 | 97 | – | – | – | – | – | –
3 | CN1CCc2c(c3cc(Cl)ccc3n2CC(C)(O)c2cccnc2)C1 (stereo not drawn) [Compound 61, 1-(8-chloro-1,2,3,4-tetrahydro-2-methylpyrido[4,3-b]indol-5-yl)-2-(pyridin-3-yl)propan-2-ol] | 87 | 76 | 19 | 65 | – | – | – | – | – | – | –
4 | Cc1ccc2[nH]c3c(c2c1)CN(C)CC3 [Compound 3, 2,8-Dimethyl-2,3,4,5-tetrahydro-1H-pyrido[4,3-b]indole] | – | – | – | 58 | – | 42 | 58 | 14 | – | – | –
5 | Cc1ccc2c(c1)c1c(n2/C=C/c2ccc(C)nc2)CCN(C)C1 [compound 95, 2,3,4,5-tetrahydro-2,8-dimethyl-5-((E)-2-(6-methylpyridin-3-yl)vinyl)-1H-pyrido[4,3-b]indole] | 89 | 95 | 17 | 71 | – | – | – | – | – | – | –
6 | COc1ccc(/C(C)=C/n2c3c(c4cc(Cl)ccc42)CN(C)CC3)cc1 [Compound 92, (E)-8-chloro-2,3,4,5-tetrahydro-5-(2-(4-methoxyphenyl)prop-1-enyl)-2-methyl-1H-pyrido[4,3-b]indole] | 99 | 89 | 83 | 97 | 97 | – | – | – | – | – | –
7 | C/C(=C\n1c2c(c3cc(Cl)ccc31)CN(C)CC2)c1ccc(C)nc1 [Compound 89, (E)-8-chloro-2,3,4,5-tetrahydro-2-methyl-5-(2-(6-methylpyridin-3-yl)prop-1-enyl)-1H-pyrido[4,3-b]indole] | 87 | 97 | 68 | 67 | – | – | – | – | – | – | –
8 | Cc1ccc2c(c1)c1c(n2CC(C)(O)c2ccc(C)nc2)CCN(C)C1 (stereo not drawn) [Compound 52, 1-(1,2,3,4-tetrahydro-2,8-dimethylpyrido[4,3-b]indol-5-yl)-2-(6-methylpyridin-3-yl)propan-2-ol] | 39 | 84 | 12 | 37 | – | – | – | – | – | – | –
9 | Cc1ccc(C(C)(O)Cn2c3c(c4cc(Cl)ccc42)CN(C)CC3)cn1 (stereo not drawn) [Compound 47, 1-(8-chloro-1,2,3,4-tetrahydro-2-methylpyrido[4,3-b]indol-5-yl)-2-(6-methylpyridin-3-yl)propan-2-ol] | 82 | 81 | 7 | 39 | – | – | – | – | – | – | –
10 | CN1CCc2c(c3cc(Cl)ccc3n2CC(C)(O)c2ccncc2)C1 (stereo not drawn) [Compound 63, 1-(8-chloro-1,2,3,4-tetrahydro-2-methylpyrido[4,3-b]indol-5-yl)-2-(pyridin-4-yl)propan-2-ol] | 84 | 74 | 17 | 73 | – | – | – | – | – | – | –
11 | CN1CCc2c(c3cc(Cl)ccc3n2CC(O)c2cccnc2)C1 (stereo not drawn) [Compound 56, 2-(8-chloro-1,2,3,4-tetrahydro-2-methylpyrido[4,3-b]indol-5-yl)-1-(pyridin-3-yl)ethanol] | 43 | 65 | 4 | 62 | – | – | – | – | – | – | –
12 | Cc1ccc2c(c1)c1c(n2CC(C)(O)c2ccncc2)CCN(C)C1 (stereo not drawn) [Compound 62, 1-(1,2,3,4-tetrahydro-2,8-dimethylpyrido[4,3-b]indol-5-yl)-2-(pyridin-4-yl)propan-2-ol] | 82 | 57 | 7 | 43 | – | – | – | – | – | – | –
13 | COc1ccc(C(C)(O)Cn2c3c(c4cc(Cl)ccc42)CN(C)CC3)cc1F (stereo not drawn) [Compound 59, 1-(8-chloro-1,2,3,4-tetrahydro-2-methylpyrido[4,3-b]indol-5-yl)-2-(3-fluoro-4-methoxyphenyl)propan-2-ol] | 81 | 83 | 17 | 54 | – | – | – | – | – | – | –
14 | Cc1ccc(/C=C/Cn2c3c(c4cc(Cl)ccc42)CN(C)CC3)cn1 [Compound 125, 8-chloro-2,3,4,5-tetrahydro-2-methyl-5-((E)-3-(6-methylpyridin-3-yl)allyl)-1H-pyrido[4,3-b]indole] | 51 | 76 | 20 | 62 | – | – | – | – | – | – | –
15 | CN1CCc2c(c3cc(Cl)ccc3n2C#Cc2ccc(F)cc2)C1 [Compound No. 475, 8-chloro-5-((4-fluorophenyl)ethynyl)-2-methyl-2,3,4,5-tetrahydro-1H-pyrido[4,3-b]indole] | – | – | – | 99 | – | – | – | – | 91 | 93 | 95
16 | Cc1ccc2c(c1)c1c(n2CC(O)c2ccc(C)nc2)CCN(C)C1 (stereo not drawn) [Compound 48, 2-(2,8-dimethyl-3,4-dihydro-1H-pyrido[4,3-b]indol-5(2H)-yl)-1-(6-methylpyridin-3-yl)ethanol] | 45 | 83 | 8 | 59 | – | – | – | – | – | – | –
17 | Cc1ccc2c(c1)c1c(n2CC(C)(O)c2ccc(F)cc2)CCN(C)C1 (stereo not drawn) [Compound 55, 2-(4-fluorophenyl)-1-(1,2,3,4-tetrahydro-2,8-dimethylpyrido[4,3-b]indol-5-yl)propan-2-ol] | 64 | 85 | 34 | – | – | – | – | – | – | – | –
